Reference: patent US4880812A, “Pyrimidine compounds” (Burroughs Wellcome Co., priority 1986, dated 1989)
Converted amounts (≈) assume the structure as drawn. Where two headings read alike, the source gives them in different places.

Columns and labels:
[1] = system: D98 cells; assay: Cell Culture Cytotoxicity Test, D98 cells; assay type: cell-based; settings: Homo sapiens; 50 % of control; 70-76 hours of incubation; read-out: Concentration giving 50 % of Control, D-98 Cells
Procedure: (§1) B. Cell Culture Cytotoxicity Test Data
(§2) The two routine indicator cell lines used are (1.) D98, a twice-cloned derivative of Detroit 98s from American Type Culture Collection (ATCC) strain CCL 18.1, from human sternal bone marrow and (2.) L, a cloned derivative from NCTC 929 (ATCC CCL1,) a C3 H/An from mouse connective tissue. Inoculation densities for L and D98 cells are 1.0 and 1.5×10^5 cells, per cm^2, respectively. Control cells are grown in Eagle's MEM (Earle's salts, 10% horse serum, 100 units/ml potassium penicillin G and 100 μg/ml streptomycin) and should show at least two doublings during the test period. Test plates are seeded with similar quantities of cells and are grown in the same medium with test compounds added. Total "cell counts" are made with an electronic cell counter after 70-76 hours of incubation with one medium change at 20-26 hours. Dose response curves are prepared by plotting percent of control vs. concentration of compound.
(§3) The compounds of the invention included in this test and the results are as follows.

[2] = system: Spiroplasma citri; assay: Activity Against Spiroplasma citri, Sensitivity Test; assay type: cell-based; settings: for MIC: Spiroplasma citri, 48 h, 32° C., no color change or two day delay in color change; for activity against the mycoplasma, Spiroplasma citri: in words
Procedure: D. Data for Activity Against Spiroplasma citri, Sensitivity Test
Frozen broth cultures are diluted to a predetermined titre of 100 color changing units for the test. Organisms are grown in Difco PPLO broth base with added serum, glucose, phenol red, ampicillin, thallium acetate and yeast extract. Incubation is at 32° C. Incubation with varying levels of the test compound in the above medium are performed in well plates and an amount of Spiroplasma citri cells is added that will produce a color change by a fixed time of growth. The lowest concentration of compound that fails to produce a color change or gives a two day delay in color change indicates minimum inhibitory concentration.
The compounds of the invention included in this test and the results are as follows: […]

[3] = system: L cells; assay: Cell Culture Cytotoxicity Test, L cells; assay type: cell-based; settings: Mus musculus; 50 % of control; 70-76 hours of incubation; read-out: Concentration giving 50 % of Control, L-Cells
Procedure: as §1, §2, §3

[4] = system: Streptococcus faecium; assay: activity against Streptococcus faecium; assay type: cell-based; settings: in words
[5] = system: lymphocytic leukemia P388/0; assay: Lymphocytic Leukemia P388/0 Test (survival, mice); assay type: in vivo, CD2-F1 mice
Description: A. Anti-neoplastic Activity Data for Lymohocytic Leukemia P388/0 Test
The tests employed for the evaluation of anti-neoplastic activity of the compounds of the present invention are essentially those used in the Tumor Panel of the Developmental Therapeutics Program, Division of Cancer Treatment, National Cancer Institute, A. Goldin, et al., Methods in Cancer Research, Vol. XVI, p. 165, Academic Press (1979). Some modifications, in dose level and schedule have been made to increase the testing efficiency.
CD2-F1 -mice, of the same sex, weighing within a 3 g range surrounding 20 g, are used for this test. Control and test animals are injected intraperitoneally with a suspension of […] viable P388/0 tumor cells on day 0. In each test, several dose levels which bracket the LD20 of the compound are evaluated; each dose level group contains six animals. The test compound is prepared either in physiologic saline containing 0.05% Tween 80 or distilled water containing 5% dextrose and is administered intraperitoneally on the indicated schedule relative to tumor implant. Doses are on a mg/kg basis according to individual animals' body weights. The day of death for each animal is recorded, the median identified for each group and the percent increase in life span (% ILS) is calculated from the ratio of survival time of treatment to control groups. The criterion for activity is % ILS greater than or equal to 20%.
The compound of the invention included in this test was the compound of Example 1, namely N-[4-[3-(2,4-diamino-1,6-dihydro-6-oxo-5-pyrimidinyl)propylamino]benzoyl]- L-glutamic acid and the results are as follows.

[6] = system: Lactobacillus casei; assay: activity against Lactobacillus casei; assay type: cell-based; settings: in words
[7] = system: yellow fever virus; settings: in words
[8] = system: mouse L cells; assay: Reversal of Cytotoxic Activity on mouse L cells
[9] = colour change on extended exposure to light; assay type: physicochemical; settings: white powder
[10] = system: mouse L cells

CN(CCCc1c(N)nc(N)[nH]c1=O)c1ccc(C(=O)N[C@@H](CCC(=O)O)C(=O)O)cc1 [Example 2, N-[4-[3-(2,4-diamino-1,6-dihydro-6-dihydro-6-oxo-5-pyrimidinyl)-N-methylpropylamino]benzoyl]-L-glutamic acid]
IC50 [1]: 3000 nM
MIC [2]: 0.1 µM (≈ 0.0446 µg/mL)
activity against the mycoplasma, Spiroplasma citri [2]: activity
IC50 [3]: 400 nM

Nc1nc(N)c(CCCNc2ccc(C(=O)N[C@@H](CCC(=O)O)C(=O)O)cc2)c(=O)[nH]1 [Example 1, N-[4-[3-(2,4-diamino-1,6-dihydro-6-oxo-5-pyrimidinyl)propylamino]benzoyl]-L-glutamic acid]
IC50 [1]: 110 nM
activity against Streptococcus faecium [4]: activity
% Increased Life Span ([5]; 2.5 mg/kg i.p., twice a day, on days 1, 2 and 3): +20%
% Increased Life Span ([5]; 5 mg/kg i.p., every 4 hours for 3 doses on days 1-4): +22%
% Increased Life Span ([5]; 5 mg/kg i.p., every hour for 8 doses on days 1 and 3): +60%
% Increased Life Span ([5]; 5 mg/kg i.p., twice a day, on days 1, 2, and 3): +35%
% Increased Life Span ([5]; 7.5 mg/kg i.p., twice a day, on days 1, 2 and 3): +40%
% Increased Life Span ([5]; 10 mg/kg i.p., every 4 hours for 3 doses on days 1-4): +80%
% Increased Life Span ([5]; 20 mg/kg i.p., every hour for 8 doses on days 1 and 3): +60%
% Increased Life Span ([5]; 182 mg/kg i.p., day 1, 5, 9): +20%
activity against Lactobacillus casei [6]: activity
activity against yellow fever virus [7]: some activity
MIC [2]: 0.01 µM (≈ 0.00432 µg/mL)
activity against the mycoplasma, Spiroplasma citri [2]: activity
activity at 0.2 µM ([8]; Mus musculus, read-out: % of Control, compound alone, 2 × 10^-7 M (experiment with Ca leucovorin)): 36%
activity at 0.2 µM ([8]; Mus musculus, read-out: % of Control, compound alone, 2 × 10^-7 M (experiment with hypoxanthine)): 40%
IC50 [3]: 88 nM

CN(CCc1c(N)nc(N)[nH]c1=O)c1ccc(C(=O)N[C@@H](CCC(=O)O)C(=O)O)cc1 [Example 5, N-[4-[2-(2,4-diamino-1,6-dihydro-6-oxo-5-pyrimidinyl)ethyl-N-methylamino]benzoyl]-L-glutamic acid]
IC50 [1]: 7000 nM
colour change upon extended exposure to light [9]: became tan upon extended exposure to light
IC50 [3]: 750 nM

NC(=O)c1ncn([C@@H]2O[C@H](COP(=O)(O)O)[C@@H](O)[C@H]2O)c1N [AICAR, 5-aminoimidazole-4-carboxamide ribonucleotide, reference compound]
reversal of the cytotoxicity of the compound of Example 3 ([8]; rescue agent against Example 3): able to reverse the cytotoxicity

Nc1nc(N)c(CCNc2ccc(C(=O)N[C@@H](CCC(=O)O)C(=O)O)cc2)c(=O)[nH]1 [Example 4, N-[4-[2-(2,4-diamino-1,6-dihydro-6-oxo-5-pyrimidinyl)ethylamino]benzoyl]-L-glutamic acid]
IC50 [1]: 700 nM
IC50 [3]: 400 nM

Nc1nc2c(c(=O)[nH]1)N(C=O)C(CNc1ccc(C(=O)N[C@@H](CCC(=O)O)C(=O)O)cc1)CN2 (stereo partly shown) [calcium leucovorin]
reversal of the cytotoxicity of the compound of Example 1 [10]: able to reverse the cytotoxicity
reversal of the cytotoxicity of the compound of Example 3 [10]: able to reverse the cytotoxicity

Nc1nc(N)c(CCCN(C=O)c2ccc(C(=O)N[C@@H](CCC(=O)O)C(=O)O)cc2)c(=O)[nH]1 [Example 3, N-[4-[3-(2,4-Diamino-1,6-dihydro-6-oxo-5-pyrimidinyl)-N-formylpropylamino]benzoyl]-L-glutamic acid]
IC50 [1]: 210 nM
activity against yellow fever virus [7]: some activity
MIC [2]: 0.1 µM (≈ 0.046 µg/mL)
activity against the mycoplasma, Spiroplasma citri [2]: activity
activity at 0.04 µM ([8]; Mus musculus, read-out: % of Control, compound alone, 4 × 10^-8 M): 37%
IC50 [3]: 18 nM

O=c1[nH]cnc2nc[nH]c12 [hypoxanthine]
reversal of the cytotoxicity of the compound of Example 1 [10]: able to reverse the cytotoxicity
reversal of the cytotoxicity of the compound of Example 3 [10]: able to reverse the cytotoxicity
